In assay [1] the target is T1, human dopamine transporter (hDAT) (Homo sapiens, UniProt Q01959).
T1 construct: expressed in transfected cells
Description: Human transporter binding studies: radioligand binding to cloned hDAT ([3H]WIN35428). To be noted: for specificity for hDAT compared to venlafaxine (in words): comparison of Kd values with venlafaxine; for Kd: HEK-293 cell membranes, 1 nM [3H]WIN35428, 22° C., 1 hour, geometric mean of at least three experiments. As for the experimental part:
(§1) The cells were incubated in 10% CO2, 90% air at 37° C. and 100% humidity. The hNET cell cultures contained 250 μg/mL geneticin sulfate. The cells were grown to 70–80% confluency prior to harvesting.
(§2) Cell membranes containing hSERT, hNET, or hDAT were prepared from the cell lines to assay ligand binding for each of the transporters. […] The washed cells were incubated for 5 minutes at 38° C. in 10 mL solution 1 containing 100 mM ethylene glycol-bis N,N,N′,N′-tetraacetic acid (EGTA). The cells were then scraped from the flask surface with a rubber spatula, placed into a centrifuge tube, and collected by centrifugation at 1000×g for 5 minutes at 4° C. The resulting supernatant was discarded, and the cell pellet was resuspended in 0.5 to 1.0 mL of the appropriate binding buffer (described below). The resuspended cell pellet was homogenized using a Polytron for 10 seconds at setting 6. The resulting homogenate was centrifuged at about 36,000×g for 10 minutes at 4° C. The supernatant was discarded, and the pellet was resuspended in the same volume of the appropriate binding buffer and centrifuged again. The supernatant was discarded, and the final pellet containing cell membranes was resuspended in the appropriate binding buffer and stored at −80° C. until use.
To assess binding to the cloned hDAT, cells expressing hDAT were homogenized in 50 mM Tris-HCl with 120 mM NaCl (pH 7.4). […] The reactions were incubated at 22° C. for 1 hour. Following incubation, the reactions were terminated by rapid filtration through separate GF/B filter strips pretreated with 0.2% polyethylenimine in a 48-well Brandel cell harvester. The cell membrane-containing filter strips were then rinsed five times with ice-cold 0.9% NaCl. After rinsing, individual filters were cut from the strip and placed in a scintillation vial containing 6.5 mL of Redi-Safe (Beckman Instruments, Fullerton, Calif.). Radioactivity was measured with a Beckman liquid scintillation counter (LS 5000TD).
(§3) The program was modified to calculate the Hill coefficient (nH). Data are presented as geometric mean ±S.E.M. of at least three independent experiments. One-component models and two-component models were compared using the root mean square error of each fit and the F test.

Assay [2] concerns the target T2, human serotonin transporter (hSERT) (Homo sapiens, UniProt P31645).
T2 construct: expressed in transfected cells
Description: Human transporter binding studies: radioligand binding to cloned hSERT ([3H]imipramine). To be noted: for Kd: HEK-293 cell membranes, 1.0 nM [3H]imipramine, 22° C., 60 minutes, geometric mean of at least three experiments; for specificity for hSERT relative to hNET and hDAT (in words): comparison of Kd values between transporters; for specificity for hSERT compared to venlafaxine (in words): comparison of Kd values with venlafaxine. The protocol: as §1, §2
Radioligand binding assays for the indicated transporters were performed as follows. To assess binding to the cloned hSERT, cells expressing hSERT were homogenized in 50 mM Tris-HCl with 120 mM NaCl and 5 mM KCl (pH 7.4). […] The reactions were incubated at 22° C. for 60 minutes. Following incubation, the reactions were terminated by rapid filtration through separate GF/B filter strips pretreated with 0.2% polyethylenimine in a 48-well Brandel cell harvester. The cell membrane-containing filter strips were then rinsed five times with ice-cold 0.9% NaCl. After rinsing, individual filters were cut from the strip and placed in a scintillation vial containing 6.5 mL of Redi-Safe (Beckman Instruments, Fullerton, Calif.). Radioactivity was measured with a Beckman liquid scintillation counter (LS 5000TD).
as §3

The target in assay [3] is T3, human norepinephrine transporter (hNET) (Homo sapiens, UniProt P23975).
T3 construct: expressed in transfected cells
T3 sequence (P23975 whole entry): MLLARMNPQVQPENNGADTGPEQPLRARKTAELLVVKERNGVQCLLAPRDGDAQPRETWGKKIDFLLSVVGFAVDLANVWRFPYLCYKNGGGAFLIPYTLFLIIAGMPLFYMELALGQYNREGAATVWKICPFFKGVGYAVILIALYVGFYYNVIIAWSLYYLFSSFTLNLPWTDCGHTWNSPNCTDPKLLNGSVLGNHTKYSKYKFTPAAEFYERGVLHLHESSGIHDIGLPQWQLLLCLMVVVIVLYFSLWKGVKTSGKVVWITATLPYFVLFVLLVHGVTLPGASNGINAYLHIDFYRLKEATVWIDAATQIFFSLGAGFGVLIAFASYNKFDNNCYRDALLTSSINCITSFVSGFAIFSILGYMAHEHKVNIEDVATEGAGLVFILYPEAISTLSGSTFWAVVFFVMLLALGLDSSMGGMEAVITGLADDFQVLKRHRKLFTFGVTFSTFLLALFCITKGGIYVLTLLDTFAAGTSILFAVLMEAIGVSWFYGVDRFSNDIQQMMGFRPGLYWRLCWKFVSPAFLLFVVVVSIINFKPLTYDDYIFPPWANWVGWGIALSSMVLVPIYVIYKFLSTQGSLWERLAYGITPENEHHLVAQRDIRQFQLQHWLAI
Description: Human transporter binding studies: radioligand binding to cloned hNET ([3H]nisoxetine). To be noted: for Kd: HEK-293 cell membranes, 0.5 nM [3H]nisoxetine, 22° C., 60 minutes, geometric mean of at least three experiments; for specificity for hNET compared to venlafaxine (in words): comparison of Kd values with venlafaxine. As for the experimental part:
as §1, §2
To assess binding to the cloned hNET, cells expressing hNET were homogenized in 50 mM Tris-HCl with 300 mM NaCl and 5 mM KCl (pH 7.4). […] A reaction to determine non-specific binding consisted of 25 μg cell membrane protein, 0.5 nM [^3H]nisoxetine, and 1 μM final concentration of unlabeled nisoxetine. The reactions were incubated at 22° C. for 60 minutes. Following incubation, the reactions were terminated by rapid filtration through separate GF/B filter strips pretreated with 0.2% polyethylenimine in a 48-well Brandel cell harvester. The cell membrane-containing filter strips were then rinsed five times with ice-cold 0.9% NaCl. After rinsing, individual filters were cut from the strip and placed in a scintillation vial containing 6.5 mL of Redi-Safe (Beckman Instruments, Fullerton, Calif.). Radioactivity was measured with a Beckman liquid scintillation counter (LS 5000TD).
as §3

The source of these data is patent US7214826B2, “Amine compounds and inhibiting neurotransmitter reuptake” (Mayo Foundation for Medical Education and Research, priority 2001, dated 2007).

T2 sequence (P31645 whole entry): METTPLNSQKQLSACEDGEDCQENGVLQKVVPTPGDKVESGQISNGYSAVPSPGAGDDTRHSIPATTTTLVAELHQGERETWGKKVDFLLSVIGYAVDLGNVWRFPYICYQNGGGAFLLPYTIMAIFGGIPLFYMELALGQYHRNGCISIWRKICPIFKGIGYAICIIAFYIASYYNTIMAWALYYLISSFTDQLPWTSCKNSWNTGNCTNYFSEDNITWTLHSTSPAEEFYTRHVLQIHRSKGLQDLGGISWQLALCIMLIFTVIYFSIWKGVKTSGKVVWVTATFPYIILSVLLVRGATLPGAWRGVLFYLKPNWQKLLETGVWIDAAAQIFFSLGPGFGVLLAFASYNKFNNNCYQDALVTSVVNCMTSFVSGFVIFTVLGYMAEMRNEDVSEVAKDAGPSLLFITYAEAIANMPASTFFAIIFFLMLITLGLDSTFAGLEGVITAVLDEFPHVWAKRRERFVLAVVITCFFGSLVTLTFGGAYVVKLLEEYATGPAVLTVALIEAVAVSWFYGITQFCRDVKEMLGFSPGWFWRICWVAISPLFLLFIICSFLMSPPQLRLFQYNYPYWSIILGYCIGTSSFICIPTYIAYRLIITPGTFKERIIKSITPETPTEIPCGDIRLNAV
T1 sequence (Q01959 whole entry): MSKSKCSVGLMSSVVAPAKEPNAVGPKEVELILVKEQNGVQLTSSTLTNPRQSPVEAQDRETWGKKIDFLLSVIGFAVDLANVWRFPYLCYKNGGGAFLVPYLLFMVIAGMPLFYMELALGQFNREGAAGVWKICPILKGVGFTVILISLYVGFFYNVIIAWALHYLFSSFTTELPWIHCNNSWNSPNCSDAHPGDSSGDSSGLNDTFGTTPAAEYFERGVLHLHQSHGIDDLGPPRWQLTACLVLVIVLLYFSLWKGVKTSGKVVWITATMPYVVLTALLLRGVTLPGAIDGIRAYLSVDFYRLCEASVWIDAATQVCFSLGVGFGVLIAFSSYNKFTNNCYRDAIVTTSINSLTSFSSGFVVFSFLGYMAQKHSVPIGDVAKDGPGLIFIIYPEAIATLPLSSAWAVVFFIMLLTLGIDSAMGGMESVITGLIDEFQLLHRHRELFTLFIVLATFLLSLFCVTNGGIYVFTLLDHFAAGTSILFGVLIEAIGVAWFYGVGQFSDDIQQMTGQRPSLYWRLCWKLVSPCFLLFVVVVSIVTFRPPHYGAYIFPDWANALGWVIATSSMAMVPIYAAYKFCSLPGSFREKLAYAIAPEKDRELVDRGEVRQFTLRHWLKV

Consider `CN(C)C[C@H](c1ccc2ccccc2c1)[C@@H](O)c1ccccc1` (racemic) [F, racemic mixture of (2S, 3R)- and (2R, 3S)-N,N-dimethyl-3-hydroxy-2-(2′-naphthyl)-3-phenylpropylamine], for which the “specificity for hDAT compared to venlafaxine (in words)” value in assay [1] is reported as “greater specificity for hDAT compared to vanlafaxine”.
On to `NCC(c1ccc2ccccc2c1)C(O)c1ccccc1` (racemic) [E, racemic mixture of (2S, 3R)- and (2R, 3S)-3-hydroxy-2-(2′naphthyl)-3-phenylpropylamine], for which, in assay [1], the Kd (as a rule, a measure of binding affinity in units of concentration) was determined as 420 nM and the “specificity for hDAT compared to venlafaxine (in words)” value is reported as “greater specificity for hDAT compared to vanlafaxine”.
For the molecule `CC(C)[C@@H](O)[C@H](CN(C)C)c1ccc2ccccc2c1` [Compound D2, (2S, 3R)-N,N-dimethyl-3-hydroxy-4-methyl-2-(2′-naphthyl)pentylamine], in assay [2], the Kd turned out to be 2.6 nM; the “specificity for hSERT relative to hNET and hDAT (in words)” value was “greater specificity for hSERT than for hNET or hDAT”; the “specificity for hSERT compared to venlafaxine (in words)” value is reported as “greater specificity for all three transporters compared to venlafaxine”. Also, in assay [1], binding was put at a Kd of 800 nM and the “specificity for hDAT compared to venlafaxine (in words)” value is “greater specificity for all three transporters compared to venlafaxine”. Further, in assay [3], the Kd stood at 60 nM and the “specificity for hNET compared to venlafaxine (in words)” value is “greater specificity for all three transporters compared to venlafaxine”.
As to `CC(C)C(O)C(CN)c1ccc2ccccc2c1` (single isomer, unassigned) [Compound C1], in assay [2], the Kd came out at 7 nM; the “specificity for hSERT relative to hNET and hDAT (in words)” value is reported as “greater specificity for hSERT than for hNET of hDAT”; the “specificity for hSERT compared to venlafaxine (in words)” value is “greater specificity for all three transporters compared to venlafaxine”. For the same molecule, in assay [1], the Kd stood at 1280 nM and the “specificity for hDAT compared to venlafaxine (in words)” value was “greater specificity for all three transporters compared to venlafaxine”. Moreover, in assay [3], the Kd was 150 nM and the “specificity for hNET compared to venlafaxine (in words)” value is reported as “greater specificity for all three transporters compared to venlafaxine”.
As to `CC(C)C(O)C(CN)c1ccc2ccccc2c1` (single isomer, unassigned) [Compound C2], in assay [2], the Kd amounted to 15.1 nM; the “specificity for hSERT relative to hNET and hDAT (in words)” value is listed as “greater specificity for hSERT than for hNET of hDAT”. Also, in assay [1], binding was put at a Kd of 1600 nM and the “specificity for hDAT compared to venlafaxine (in words)” value is “greater specificity for all three transporters compared to venlafaxine”. This molecule also gave a Kd in assay [3] of 140 nM.
Consider `CNCC(c1ccc2ccccc2c1)C(O)c1ccccc1` (racemic) [Compound B, racemic mixture of (2S, 3R)- and (2R, 3S)-N-methyl-3-hydroxy-2-(2′-naphthyl)-3-phenylpropylamine], for which, in assay [1], the Kd was determined as 390 nM and the “specificity for hDAT compared to venlafaxine (in words)” value is reported as “greater specificity for hDAT than the parent analogue venlfaxine”.
`CC(C)[C@H](O)[C@@H](CN(C)C)c1ccc2ccccc2c1` [Compound D1, (2R, 3S)-N,N-dimethyl-3-hydroxy-4-methyl-2-(2′-naphthyl)pentylamine]: in assay [2], binding was put at a Kd of 4.2 nM and the “specificity for hSERT compared to venlafaxine (in words)” value is “greater specificity for all three transporters compared to venlafaxine”. In assay [1], the affinity, expressed as Kd, was 150 nM and the “specificity for hDAT compared to venlafaxine (in words)” value is recorded as “greater specificity for all three transporters compared to venlafaxine”. Besides, in assay [3], the Kd was 7.4 nM and the “specificity for hNET compared to venlafaxine (in words)” value is “greater specificity for all three transporters compared to venlafaxine”.
As for `CC(C)C(O)C(CN(C)C)c1ccc2ccccc2c1` (racemic) [Compound D, racemic mixture of (2R, 3S)- and (2S, 3R)-N,N-dimethyl-3-hydroxy-4-methyl-2-(2′naphthyl)pentylamine], in assay [2], the Kd was determined as 0.3 nM; the “specificity for hSERT relative to hNET and hDAT (in words)” value is “stronger binding to hSERT than to hNET or hDAT”; the “specificity for hSERT compared to venlafaxine (in words)” value is reported as “more potent inhibitor of all three transporters compared to vanlafaxine”. For the same molecule, in assay [1], the Kd turned out to be 180 nM and the “specificity for hDAT compared to venlafaxine (in words)” value was “more potent inhibitor of all three transporters compared to vanlafaxine”. In assay [3], binding was characterised by a dissociation constant (Kd) of 14.6 nM and the “specificity for hNET compared to venlafaxine (in words)” value is “more potent inhibitor of all three transporters compared to vanlafaxine”.
Consider `CNCC(c1ccc2ccccc2c1)C(O)c1ccccc1` (racemic) [Compound A, racemic mixture of (2R, 3R)- and (2S, 3S)-N-methyl-3-hydroxy-2-(2′-naphthyl)-3-phenylpropylamine], for which the values for the Kd in assay [2], in assay [1] and in assay [3] were 6.3 nM, 130 nM and 0.25 nM, respectively. Further, the “binding to hNET ranked among all compounds tested (in words)” value in assay [3] is listed as “strongest binding to hNET of all the compounds tested”. For the same molecule, the “specificity for hNET relative to hSERT and hDAT (in words)” value in assay [3] is given as “greater specificity for hNET than for hSERT or hDAT”.
`CC(C)C(O)C(CN)c1ccc2ccccc2c1` (racemic) [Compound C, racemic mixture of (2R, 3S)- and (2S, 3R)-3-hydroxy-4-methyl-2-(2′-naphthyl)pentylamine]: in assay [2], binding was put at a Kd of 5.7 nM; the “specificity for hSERT relative to hNET and hDAT (in words)” value is given as “more potent inhibitor of hSERT than of hNET or hDAT”; the “specificity for hSERT compared to venlafaxine (in words)” value is reported as “greater specificity for all three transporters compared to venlafaxine”. Moreover, in assay [1], binding was characterised by a dissociation constant (Kd) of 880 nM and the “specificity for hDAT compared to venlafaxine (in words)” value is recorded as “greater specificity for all three transporters compared to venlafaxine”. Moreover, in assay [3], the Kd was 329 nM and the “specificity for hNET compared to venlafaxine (in words)” value is given as “greater specificity for all three transporters compared to venlafaxine”.
